Measured values published in PMC8654833 (Scientific Reports, 2021).
Several values for one entry are separate records, joined by “and”; a condition that tells them apart may be missing. Equal entries are not always repeated.

Assays:
5-HT2B [1] = target: T1, 5-HT2B (Homo sapiens, UniProt P41595); assay: Single-concentration radioligand binding screen (Eurofins Cerep), 5-HT2B; set-up: Euroscreen FAST (contract assay); conditions: single concentration 10 µM screen, [3H]mesulergine
[2] = Stability in vehicle at 37 °C by LC-MS; format: physicochemical; conditions: vehicle (20% DMSO in distilled water), data not shown
5-HT1B = target: T2, 5-HT1B (Rattus norvegicus, UniProt P28564); assay: Single-concentration radioligand binding screen (Eurofins Cerep), 5-HT1B; conditions: read-out: %Binding inhibition at 10 µM
T2 construct: Eurofins Cerep (contract assay)
Experimental: (§1) This study included binding assays (87 GPCR targets), measured as % of binding inhibition of a reference radioligand, as well as uptake and enzyme assays (19 targets), the latter measured as % inhibition of control enzyme activity. […] It was performed by radioligand binding competition by Euroscreen (Euroscreen FAST, Belgium). The following nanomolar concentrations were tested in duplicate: 0.001, 0.01, 0.1, 1, 10, 100, 1000, 10,000. Dose–response curves were fitted with the least squares method. IC50 results are shown as pIC50, corresponding to the negative log10 of IC50 in molar.

Ca^2+ channel, vs [3] = assay: Radioligand binding competition dose-response (Euroscreen), Ca2+ channel verapamil site
Experimental: as §1

[4] = Plasma pharmacokinetics after IV, PO or SC administration; conditions: for half-life / bioavailability: in vivo
5-HT2B receptor = conditions: cited from earlier work
5-HT7 = target: T3, 5-HT7 (Homo sapiens, UniProt P34969); assay: Single-concentration radioligand binding screen (Eurofins Cerep), 5-HT7; conditions: single concentration 10 µM screen, [3H]LSD
T3 construct: Euroscreen FAST (contract assay)
Experimental: as §1

[5] = tested on: microglia and motor neurons in the ventral spinal cord; assay: Iba1 and ChAT immunostaining of lumbar spinal cord; format: in vivo; conditions: Sod1^G86R mice
Experimental: We then sought to characterize whether BW modulated microglial physiology and used RT-qPCR to measure microglia related genes in the cervical and thoracic spinal cord of animals treated with either vehicle or 3 mg/kg/d of BW. […] We next wanted to see if these changes in gene expression were accompanied by modification of microglial activation in spinal cord of treated mice. Iba1 + cells were classified in 4 different activation states (resting, activated, phagocytic or dystrophic).
Lumbar spinal cord was dissected and cryopreserved before OCT inclusion. Samples were cut with a cryostat (Leica CM30505) at 20 µm of thickness. Iba1 (1:100, Sigma cat#SAB2702364, RRID: AB_2820253) and ChaT (1:100, Millipore cat#AB144P) immunostainings were performed using DAB peroxidase technique to assess microglial integrity and motor neuron degeneration. Images were acquired using a Leica DM750 microscope at × 10 magnification. Cells were counted in the ventral horn in a standardized zone with n = 4–10 images per animal, and subsequently classified using FIJI software (RRID: SCR_002285)[23],[24].

5-HT2B [6] = target: T1, 5-HT2B; conditions: dose-response study, maximal concentration 10 µM, [3H]mesulergine
5-HT2C = target: T4, 5-HT2C (Homo sapiens, UniProt P28335); assay: Radioligand binding competition dose-response (Euroscreen), 5-HT2C
T4 construct: Euroscreen FAST (contract assay)
T4 sequence (P28335 33-458): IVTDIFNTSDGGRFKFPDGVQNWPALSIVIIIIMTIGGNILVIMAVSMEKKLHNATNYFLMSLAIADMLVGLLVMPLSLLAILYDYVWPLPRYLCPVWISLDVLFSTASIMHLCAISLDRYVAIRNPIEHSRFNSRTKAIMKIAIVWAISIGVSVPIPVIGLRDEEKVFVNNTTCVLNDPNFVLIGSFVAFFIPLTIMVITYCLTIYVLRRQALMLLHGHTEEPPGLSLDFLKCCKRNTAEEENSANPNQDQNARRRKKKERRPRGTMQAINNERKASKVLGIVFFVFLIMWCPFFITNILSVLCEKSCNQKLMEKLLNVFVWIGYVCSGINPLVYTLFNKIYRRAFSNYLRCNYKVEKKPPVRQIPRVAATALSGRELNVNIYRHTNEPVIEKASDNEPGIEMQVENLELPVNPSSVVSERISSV
Experimental: as §1

Ca^2+ channel, ds = assay: Single-concentration radioligand binding screen (Eurofins Cerep), Ca2+ channel diltiazem site; conditions: single concentration 10 µM screen, [3H]diltiazem
Experimental: as §1

5-HT5A = target: T5, 5-HT5A (Homo sapiens, UniProt P47898); assay: Single-concentration radioligand binding screen (Eurofins Cerep), 5-HT5A; conditions: single concentration 10 µM screen, [3H]LSD
T5 construct: Euroscreen FAST (contract assay)
Experimental: as §1

in vivo = conditions: CD-1, mouse, po, 10 mg/kg
DAT = target: T6, DAT (Homo sapiens, UniProt Q01959); assay: Single-concentration radioligand binding screen (Eurofins Cerep), dopamine transporter; conditions: single concentration 10 µM screen, [3H]BTCP
T6 construct: Euroscreen FAST (contract assay)
Experimental: as §1

Ca^2+ channel, vs [7] = assay: Single-concentration radioligand binding screen (Eurofins Cerep), Ca2+ channel verapamil site; conditions: single concentration 10 µM screen, [3H]D888
Experimental: as §1

[8] = Plasma and brain distribution after single IP injection; conditions: CD-1, mouse, 10 mg/kg
[9] = IV 2 mg/kg, individual mice n1-n3, 2 mg/kg
[10] = PO 10 mg/kg, individual mice n1-n3, 10 mg/kg
[11] = SC 10 mg/kg, individual mice n1-n3, 10 mg/kg

T1 sequence (P41595 whole entry, species assumed): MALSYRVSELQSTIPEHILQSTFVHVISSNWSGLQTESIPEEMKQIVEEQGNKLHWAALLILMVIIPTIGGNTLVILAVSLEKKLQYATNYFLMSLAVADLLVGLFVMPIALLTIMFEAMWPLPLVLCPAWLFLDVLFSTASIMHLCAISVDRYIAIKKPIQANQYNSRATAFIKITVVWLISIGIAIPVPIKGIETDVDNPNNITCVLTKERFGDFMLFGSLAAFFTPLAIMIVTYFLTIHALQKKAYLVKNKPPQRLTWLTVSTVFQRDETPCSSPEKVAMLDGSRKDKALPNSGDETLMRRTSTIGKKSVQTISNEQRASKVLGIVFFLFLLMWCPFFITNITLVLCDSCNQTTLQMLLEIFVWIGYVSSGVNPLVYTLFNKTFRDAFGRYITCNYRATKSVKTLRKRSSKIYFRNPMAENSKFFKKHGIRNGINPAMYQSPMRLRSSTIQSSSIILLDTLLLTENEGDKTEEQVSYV
T5 sequence (P47898 whole entry, species assumed): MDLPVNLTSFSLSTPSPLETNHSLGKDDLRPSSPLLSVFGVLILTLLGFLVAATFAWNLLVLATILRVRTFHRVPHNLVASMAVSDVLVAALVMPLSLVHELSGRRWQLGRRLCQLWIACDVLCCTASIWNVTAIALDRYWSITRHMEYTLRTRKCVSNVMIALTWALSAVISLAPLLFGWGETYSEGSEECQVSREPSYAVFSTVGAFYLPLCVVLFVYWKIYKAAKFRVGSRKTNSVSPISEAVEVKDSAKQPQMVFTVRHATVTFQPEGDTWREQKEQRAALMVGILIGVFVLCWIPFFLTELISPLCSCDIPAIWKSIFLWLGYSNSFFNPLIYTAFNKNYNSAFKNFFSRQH
T3 sequence (P34969 whole entry, species assumed): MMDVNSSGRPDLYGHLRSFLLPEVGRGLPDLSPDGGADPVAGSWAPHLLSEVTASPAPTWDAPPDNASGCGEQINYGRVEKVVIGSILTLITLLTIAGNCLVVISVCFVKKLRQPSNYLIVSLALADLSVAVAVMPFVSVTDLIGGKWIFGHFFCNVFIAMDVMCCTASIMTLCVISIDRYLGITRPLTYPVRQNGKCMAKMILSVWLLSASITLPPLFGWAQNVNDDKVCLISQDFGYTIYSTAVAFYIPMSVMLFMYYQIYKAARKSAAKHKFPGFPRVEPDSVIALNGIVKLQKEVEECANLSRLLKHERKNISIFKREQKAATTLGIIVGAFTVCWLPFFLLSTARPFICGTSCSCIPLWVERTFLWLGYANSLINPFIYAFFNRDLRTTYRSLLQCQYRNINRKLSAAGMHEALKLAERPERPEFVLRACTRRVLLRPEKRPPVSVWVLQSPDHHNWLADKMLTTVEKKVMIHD
T6 sequence (Q01959 whole entry, species assumed): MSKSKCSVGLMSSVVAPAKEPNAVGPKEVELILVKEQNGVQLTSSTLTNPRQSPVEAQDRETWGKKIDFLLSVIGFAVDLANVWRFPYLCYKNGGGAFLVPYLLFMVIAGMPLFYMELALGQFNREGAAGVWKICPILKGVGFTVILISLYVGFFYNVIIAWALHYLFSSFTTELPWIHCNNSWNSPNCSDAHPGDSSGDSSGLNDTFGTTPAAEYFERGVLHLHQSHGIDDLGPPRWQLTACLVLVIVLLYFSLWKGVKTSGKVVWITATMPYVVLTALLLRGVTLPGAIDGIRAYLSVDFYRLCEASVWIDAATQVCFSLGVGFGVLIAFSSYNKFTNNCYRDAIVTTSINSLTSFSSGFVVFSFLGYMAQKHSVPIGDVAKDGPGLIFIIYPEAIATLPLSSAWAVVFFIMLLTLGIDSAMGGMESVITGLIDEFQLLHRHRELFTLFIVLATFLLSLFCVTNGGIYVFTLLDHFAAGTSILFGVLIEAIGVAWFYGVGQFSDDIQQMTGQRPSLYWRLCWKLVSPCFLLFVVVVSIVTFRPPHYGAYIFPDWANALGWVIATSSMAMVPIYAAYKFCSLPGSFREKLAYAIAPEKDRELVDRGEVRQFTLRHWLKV
T2 sequence (P28564 whole entry): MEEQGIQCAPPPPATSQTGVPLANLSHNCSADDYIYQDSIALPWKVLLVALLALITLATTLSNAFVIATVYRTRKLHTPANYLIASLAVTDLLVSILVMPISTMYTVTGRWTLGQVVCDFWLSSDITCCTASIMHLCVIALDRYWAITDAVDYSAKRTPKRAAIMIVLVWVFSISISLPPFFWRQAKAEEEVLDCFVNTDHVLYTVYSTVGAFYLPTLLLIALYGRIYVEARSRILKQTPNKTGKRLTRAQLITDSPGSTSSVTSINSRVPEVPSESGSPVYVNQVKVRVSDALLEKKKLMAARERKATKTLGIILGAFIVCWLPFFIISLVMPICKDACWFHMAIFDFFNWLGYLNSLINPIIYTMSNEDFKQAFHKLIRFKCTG

CC(N)Cc1c[nH]c2ccc(OCc3cccs3)cc12 (stereo not drawn) [BW, 1-[5-(thiophen-2-ylmethoxy)-1H-indol-3-yl]propan-2-amine]
inhibition at 10 µM (5-HT2B [1]): 99%
stable at 37 °C in vehicle [2]: at least 2 months
inhibition at 10 µM (5-HT1B): 92%
pIC50 (Ca^2+ channel, vs [3]; [3H]D888 competition): 5.21
%Binding inhibition at 10 µM (Ca^2+ channel, vs [3]; dose-response study, maximal concentration 10 µM, [3H]D888): 51.29%
pIC50 difference as compared to 5-HT2BR (Ca^2+ channel, vs [3]; verapamil site of calcium channel vs 5-HT2BR): 2.3 log10
plasma detection at 24 h ([4]; 24 h after a single administration (data not shown)): no compound could be detected
half-life ([4]; CD-1, mouse, iv, 2 mg/kg, T1/2, IV 2 mg/kg, individual mice n1-n3): 58.8 min
half-life ([4]; CD-1, mouse, iv, 2 mg/kg, T1/2, IV 2 mg/kg, mean): 55.8 min
bioavailability ([4]; CD-1, mouse, po, 10 mg/kg, PO 10 mg/kg): 4.72%
half-life ([4]; CD-1, mouse, po, 10 mg/kg, T1/2, PO 10 mg/kg, mean): 153 min
bioavailability ([4]; CD-1, mouse, sc, 10 mg/kg, SC 10 mg/kg): 35%
half-life ([4]; CD-1, mouse, sc, 10 mg/kg, T1/2, SC 10 mg/kg, individual mice n1-n3): 68.4 min
half-life ([4]; CD-1, mouse, sc, 10 mg/kg, T1/2, SC 10 mg/kg, mean): 82.2 min
AUC0-inf ([4]; CD-1, mouse, plasma, iv, 2 mg/kg, AUC0-inf, IV 2 mg/kg, individual mice n1-n3): 0.289 µg·h/mL
AUC0-inf ([4]; CD-1, mouse, plasma, iv, 2 mg/kg, AUC0-inf, IV 2 mg/kg, mean): 0.236 µg·h/mL
C0 ([4]; CD-1, mouse, plasma, iv, 2 mg/kg, C0, IV 2 mg/kg, individual mice n1-n3): 0.406 µg/mL
C0 ([4]; CD-1, mouse, plasma, iv, 2 mg/kg, C0, IV 2 mg/kg, mean): 0.354 µg/mL
AUC0-inf ([4]; CD-1, mouse, plasma, po, 10 mg/kg, AUC0-inf, PO 10 mg/kg, individual mice n1-n3): 0.239 µg·h/mL
AUC0-inf ([4]; CD-1, mouse, plasma, po, 10 mg/kg, AUC0-inf, PO 10 mg/kg, mean): 0.278 µg·h/mL
Cmax ([4]; CD-1, mouse, plasma, po, 10 mg/kg, Cmax, PO 10 mg/kg, mean): 0.077 µg/mL
Tmax ([4]; CD-1, mouse, plasma, po, 10 mg/kg, Tmax, PO 10 mg/kg, mean): 34.8 min
AUC0-inf ([4]; CD-1, mouse, plasma, sc, 10 mg/kg, AUC0-inf, SC 10 mg/kg, individual mice n1-n3): 2.03 µg·h/mL
AUC0-inf ([4]; CD-1, mouse, plasma, sc, 10 mg/kg, AUC0-inf, SC 10 mg/kg, mean): 2.07 µg·h/mL
Cmax ([4]; CD-1, mouse, plasma, sc, 10 mg/kg, Cmax, SC 10 mg/kg, individual mice n1-n3): 1.1 µg/mL
Cmax ([4]; CD-1, mouse, plasma, sc, 10 mg/kg, Cmax, SC 10 mg/kg, mean): 1.02 µg/mL
Tmax ([4]; CD-1, mouse, plasma, sc, 10 mg/kg, Tmax, SC 10 mg/kg, mean): 11.4 min
AUC0-inf [4, 9]: 0.221 µg·h/mL and 0.199 µg·h/mL
AUCExtra [4, 9]: 4.8% and 3.5% and 4.5%
C0 [4, 9]: 0.29 µg/mL and 0.366 µg/mL
T1/2 [4, 9]: 50.4 min and 58.8 min
AUCExtra ([4]; IV 2 mg/kg, mean): 4.3%
AUC0-inf [4, 10]: 0.294 µg·h/mL and 0.302 µg·h/mL
AUCExtra [4, 10]: 29.9% and 7.2% and 1.0%
Cmax [4, 10]: 0.0365 µg/mL and 0.0615 µg/mL and 0.132 µg/mL
T1/2 [4, 10]: 270 min and 121 min and 67.8 min
Tmax [4, 10]: 15 min and 60 min
AUCExtra ([4]; PO 10 mg/kg, mean): 12.7%
AUC0-inf [4, 11]: 2.246 µg·h/mL and 1.938 µg·h/mL
AUCExtra [4, 11]: 0.7% and 1.4% and 3.3%
Cmax [4, 11]: 1.01 µg/mL and 0.935 µg/mL
T1/2 [4, 11]: 72 min and 99 min
Tmax [4, 11]: 0.25 h (2×) and 0.08 h
AUCExtra ([4]; SC 10 mg/kg, mean): 1.8%
agonist activity in rat stomach fundus (5-HT2B receptor): potent agonist
inhibition at 10 µM (5-HT7): 89.5%
microglial morphology (proportion of resting, activated, phagocytic, dystrophic Iba1+ cells) ([5]; 3 mg/kg/d vs vehicle): No statistically significant difference
loss of motor neurons (ChAT positive cells in the ventral spinal cord) ([5]; 3 mg/kg/d): did not modify
%Binding inhibition at 10 µM (5-HT2B [6]): 103.54%
IC50 (5-HT2C): 1.32 µM
inhibition at 10 µM (5-HT2C; dose-response study, maximal concentration 10 µM, [3H]mesulergine): 91.1%
%Binding inhibition at 10 µM (Ca^2+ channel, ds): 66.3%
inhibition at 10 µM (5-HT5A): 54.6%
Tmax (in vivo): 30 min
inhibition at 10 µM (DAT): 81.9%
%Binding inhibition at 10 µM (Ca^2+ channel, vs [7]): 75.5%
Tmax ([8]; in vivo): ~30 min
concentration at 4 h ([8]; in vivo): 860 ng/g
concentration at 8 h ([8]; in vivo): 14.4 ng/mL and 417 ng/g
half-life ([8]; plasma): 66 min
